According to patent publication US9044442B2, “Peptidomimetic compounds as immunomodulators” (AURIGENE DISCOVERY TECHNOLOGIES LIMITED, priority 2012, dated 2015):

Key:
[1] = tested on: MDA-MB-231 tumor cells expressing PD-L1; experiment: Rescue of mouse splenocyte proliferation inhibited by MDA-MB-231 tumor cells expressing PD-L1 (CFSE based assay); format: cell-based; conditions: for Fold induction: % splenocyte proliferation / % background proliferation, background 1.0, stimulated 3.7; for % Splenocyte proliferation: mouse splenocytes + anti-CD3/CD28 + MDA-MB-231 cells + compound, 72 hrs, background 20, stimulated 74
Description: (§1) The effect of PD1 derived peptidomimetics on mouse splenocyte proliferation inhibited by recombinant PDL1 or tumor cells expressing PDL; analyzed by Fluorescence Activated Cell Shorting (FACS) method using CFSE (Carboxyfluorescein Diacetate Succinimidyl Ester) labeling.
Rescue of Mouse Splenocyte Proliferation in the Presence of Recombinant PD-L1/MDA MB-231 Cells Expressing PDL1: […]
(§2) Mouse splenocytes harvested from 6-8 weeks old C57 BL6 mice; RPMI 1640 (GIBCO, Cat #11875); DMEM with high glucose (GIBCO, Cat # D6429); Fetal Bovine Serum [Hyclone, Cat # SH30071.03]; Penicillin (10000 unit/ml)-Streptomycin (10,000 μg/ml) Liquid (GIBCO, Cat #15140-122); MEM Sodium Pyruvate solution 100 mM (100×), Liquid (GIBCO, Cat #11360); Nonessential amino acid (GIBCO, Cat #11140); L-Glutamine (GIBCO, Cat #25030); Anti-CD3 antibody (eBiosciences—16-0032); Anti-CD28 antibody (eBiosciences—16-0281); ACK lysis buffer (imp (GIBCO, Cat #-A10492); Histopaque (density-1.083 gm/ml) (SIGMA 10831); Trypan blue solution (SIGMA-T8154); 2 ml Norm Ject Luer Lock syringe—(Sigma 2014-12); 40 μm nylon cell strainer (BD FALCON 35230); Hemacytometer (Bright line-SIGMA Z359629); FACS Buffer (PBS/0.1% BSA): Phosphate Buffered Saline (PBS) pH 7.2 (HiMedia TS1006) with 0.1% Bovine Serum Albumin (BSA) (SIGMA A7050) and sodium azide (SIGMA 08591); 5 mM stock solution of CFSE: CFSE stock solution was prepared by diluting lyophilized CFSE with 180 μL of Di methyl Sulfoxide (DMSO C2H6SO, SIGMA-D-5879) and aliquoted in to tubes for further use. Working concentrations were titrated from 10 μM to 1 μM. (eBioscience—650850-85); 0.05% Trypsin and 0.02% EDTA (SIGMA 59417C); 96-well format ELISA plates (Corning CLS3390); BD FACS caliber (E6016); Recombinant Human B7-H1/PDL1 Fc Chimera (rh-PDL-1, cat no: 156-B7-100);
Splenocytes harvested in a 50 ml falcon tube by mashing mouse spleen in a 40 μm cell strainer were further treated with 1 ml ACK lysis buffer for 5 mins at room temperature. After washing with 9 ml of RPMI complete media, cells were re-suspended in 3 ml of 1×PBS in a 15 ml tube. 3 ml of Histopaque was added carefully to the bottom of the tube without disturbing overlaying splenocyte suspension. After centrifuging at 800×g for 20 mins at room temperature, the opaque layer of splenocytes was collected carefully without disturbing/mixing the layers. Splenocytes were washed twice with cold 1×PBS followed by total cell counting using Trypan Blue exclusion method and used further for cell based assays.
Splenocytes were cultured in RPMI complete media (RPMI+10% fetal bovine serum+1 mM sodium pyruvate+10,000 units/ml penicillin and 10,000 μg/ml streptomycin) and maintained in a CO2 incubator with 5% CO2 at 37° C.
CFSE is a dye that passively diffuses into cells and binds to intracellular proteins. 1×10^6 cells/ml of harvested splenocytes were treated with 5 μM of CFSE in pre-warmed 1×PBS/0.1% BSA solution for 10 mins at 37° C. Excess CFSE was quenched using 5 volumes of ice-cold culture media to the cells and incubated on ice for 5 mins. CFSE labelled splenocytes were further given three washes with ice cold complete RPMI media. CFSE labelled 1×10^5 splenocytes added to wells containing either MDA-MB231 cells (1×10^5 cells cultured in high glucose DMEM medium) or recombinant human PDL-1 (100 ng/ml) and test compounds. Splenocytes were stimulated with anti-mouse CD3 and anti-mouse CD28 antibody (1 μg/ml each), and the culture was further incubated for 72 hrs at 37° C. with 5% CO2. Cells were harvested and washed thrice with ice cold FACS buffer and % proliferation was analyzed by flow cytometry with 488 nm excitation and 521 nm emission filters.
(§3) Percent splenocyte proliferation was analyzed using cell quest FACS program and fold induction was calculated by normalizing individual values to % background proliferation. […]

recombinant human PDL-1 = molecular target: T1, recombinant human PDL-1 (Homo sapiens, UniProt Q9NZQ7); experiment: Rescue of mouse splenocyte proliferation inhibited by recombinant human PDL-1 (CFSE, FACS); format: cell-based; conditions: mouse splenocytes, anti-CD3/CD28 stimulated, rh-PDL-1 100 ng/ml, 72 hrs
T1 construct: Fc (Fc chimera); purchased R&D Systems 156-B7-100
T1 sequence (Q9NZQ7 with tags, fused parts or gaps limits assumed): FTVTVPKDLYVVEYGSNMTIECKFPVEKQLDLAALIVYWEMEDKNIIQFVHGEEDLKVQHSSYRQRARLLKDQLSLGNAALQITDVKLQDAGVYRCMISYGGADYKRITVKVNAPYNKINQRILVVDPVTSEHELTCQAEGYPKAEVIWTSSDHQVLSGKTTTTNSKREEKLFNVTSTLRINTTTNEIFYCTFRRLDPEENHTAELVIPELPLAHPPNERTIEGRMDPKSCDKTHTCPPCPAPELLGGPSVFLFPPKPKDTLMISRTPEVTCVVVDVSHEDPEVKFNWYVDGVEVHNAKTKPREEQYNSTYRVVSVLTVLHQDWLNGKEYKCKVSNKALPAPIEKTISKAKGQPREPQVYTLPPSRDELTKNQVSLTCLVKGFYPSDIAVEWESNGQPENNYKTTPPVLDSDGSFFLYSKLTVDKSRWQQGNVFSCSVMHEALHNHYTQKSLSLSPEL
Description: as §1
Rescue of Mouse Splenocyte Proliferation in the Presence of Recombinant PD-L1/MDA MB-231 Cells Expressing PDL1:
Alternatively, recombinant human PD-L1 (rh-PDL-1, cat no: 156-B7-100, R&D Systems) was also used as the source of PD-Ll.
as §2, with “Working concentrations were titrated from 10 μM to 1 μM. (eBioscience—650850-85); 0.05% Trypsin and 0.02% EDTA (SIGMA 59417C); 96-well format ELISA plates (Corning CLS3390); BD FACS caliber (E6016); Recombinant Human B7-H1/PDL1 Fc Chimera (rh-PDL-1, cat no: 156-B7-100);” left out
CFSE is a dye that passively diffuses into cells and binds to intracellular proteins. […] Cells were harvested and washed thrice with ice cold FACS buffer and % proliferation was analyzed by flow cytometry with 488 nm excitation and 521 nm emission filters.
as §3

recombinant mouse PDL-1 = molecular target: T2, recombinant mouse PDL-1 (Mus musculus, UniProt Q9EP73); experiment: Rescue of splenocyte effector function, IFN-γ release by ELISA, recombinant mouse PDL-1; format: cell-based; conditions: mouse splenocytes, anti-CD3/CD28, PDL-1 100 ng/ml, 72 hrs, read-out: EC50 (nM), IFN-γ release, in presence of recombinant mouse PDL-1
T2 construct: purchased R&D Systems 1019-B7-100
T2 sequence (Q9EP73 with tags, fused parts or gaps limits assumed): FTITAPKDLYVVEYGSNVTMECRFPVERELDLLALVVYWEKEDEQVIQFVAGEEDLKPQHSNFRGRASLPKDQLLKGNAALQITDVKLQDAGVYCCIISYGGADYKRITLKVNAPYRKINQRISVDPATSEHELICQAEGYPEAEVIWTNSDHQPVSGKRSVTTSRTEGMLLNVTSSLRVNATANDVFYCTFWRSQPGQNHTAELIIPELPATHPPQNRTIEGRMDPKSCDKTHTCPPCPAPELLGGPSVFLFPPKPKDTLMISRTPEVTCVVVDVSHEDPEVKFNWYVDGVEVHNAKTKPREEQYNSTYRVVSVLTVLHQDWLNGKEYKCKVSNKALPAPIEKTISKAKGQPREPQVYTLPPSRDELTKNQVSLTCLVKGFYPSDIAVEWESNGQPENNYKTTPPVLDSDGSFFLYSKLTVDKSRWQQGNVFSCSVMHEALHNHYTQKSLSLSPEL
Method: (§4) 1×10^5 splenocytes (isolated as described earlier) were added to wells containing recombinant mouse PDL-1 (cat no: 1019-B7-100, R&D Systems) or PDL-2 (Cat no: 1022-PL-100, R&D Systems) (both at 100 ng/ml) and test peptidomimetics. Splenocytes were stimulated with anti-mouse CD3 (eBiosciences—16-0032) and anti-mouse CD28 antibody (eBiosciences—16-0281) (1 μg/ml each) and the culture was further incubated for 72 hrs at 37° C. with 5% CO2. After 72 hours of incubation the cell culture supernatants were collected after brief centrifugation of culture plates (200 g×5 mins at 4° C.) and processed for mouse IFN-γ measurement by ELISA following manufacturer's protocol (e Biosciences; 88-7314). In brief, 96 well ELISA plates were coated with 100 μl/well of capture antibody in coating buffer and incubated overnight at 4° C. Plates were washed five times with wash buffer and further blocked with 200 μl of 1× assay diluents for 1 hr at RT. Following wash step, 100 μl of cell culture supernatants were added to wells and further incubated for 2 hrs at RT. Appropriate standards were also included. After wash step, plate was incubated for one hour with 100 μl/well of detection antibody. The wash step was repeated and the plate was incubated for 30 minutes with 100 μl/well of Avidin-HRP. The plate was washed 7 times with wash buffer and incubated for 15 minutes with 100 μl/well of substrate solution. 50 μl of stop solution was added to each well and the plate was read at 450 nm. The absorbance values were then plotted against the standards and the concentration of IFN-γ was determined using GraphPad Prism software. Each experimental condition was carried out in triplicates. Percent IFN-γ release for each test compound concentration was calculated by normalising individual test compound IFN-γ values to anti-CD3+anti-CD28 stimulated IFN-γ value. The percent IFN-γ release by test compounds were calculated using following formula: % IFN-γ release=[(Test compound IFN-γ−PDL background control)/(anti-CD3+anti-CD28 positive control−PDL background control)]*100. […]

recombinant mouse PDL-2 = molecular target: T3, recombinant mouse PDL-2 (Mus musculus, UniProt Q9WUL5); experiment: Rescue of splenocyte effector function, IFN-γ release by ELISA, recombinant mouse PDL-2; format: cell-based; conditions: mouse splenocytes, anti-CD3/CD28, PDL-2 100 ng/ml, 72 hrs, read-out: EC50 (nM), IFN-γ release, in presence of recombinant mouse PDL-2
T3 construct: purchased R&D Systems 1022-PL-100
T3 sequence (Q9WUL5 with tags, fused parts or gaps limits assumed): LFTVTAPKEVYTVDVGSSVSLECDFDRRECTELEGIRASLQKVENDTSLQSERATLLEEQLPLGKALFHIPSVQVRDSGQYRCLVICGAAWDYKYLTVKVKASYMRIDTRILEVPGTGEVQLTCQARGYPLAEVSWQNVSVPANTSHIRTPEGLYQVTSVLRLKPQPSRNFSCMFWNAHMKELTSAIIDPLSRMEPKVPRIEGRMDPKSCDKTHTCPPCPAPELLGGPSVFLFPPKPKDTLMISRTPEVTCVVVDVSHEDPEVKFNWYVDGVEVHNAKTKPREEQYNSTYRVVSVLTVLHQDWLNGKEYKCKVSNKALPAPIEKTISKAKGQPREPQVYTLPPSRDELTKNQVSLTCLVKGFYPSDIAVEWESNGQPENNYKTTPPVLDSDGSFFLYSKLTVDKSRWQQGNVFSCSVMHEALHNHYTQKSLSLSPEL
Method: as §4

[2] = tested on: CT26 (murine colon carcinoma) cells; experiment: In vivo efficacy on primary tumour growth in CT-26 colon cancer model; design: species or system mouse; conditions: male Balb/c mice, 3 mg/kg
Method: Two million CT26 (murine colon carcinoma) cells injected to male Balb/c mice (s.c) on day 1 and dosing started on Day 5. Each group consisted of ten animals. Tumor volumes were measured 3 times a week, body weight and clinical signs monitored daily. Compound #2 dosed at 3 mg/kg, inhibited the tumour growth to the extent of 46 percent (p<0. p<0.01, 2-way ANOVA) (FIG. 2).

In the case of `CC(O)[C@H](NC(=O)N[C@H](CC(N)=O)C(=O)NNC(=O)[C@H](N)CO)C(=O)O` (some centres unmarked) [Compound 15], the Fold induction [1] is reported as 2.9 and the “% Splenocyte proliferation” value [1] is reported as 58%.
With `NC(=O)C[C@H](NC(=O)N[C@@H](CC(=O)O)C(=O)O)C(=O)NNC(=O)[C@@H](N)CO` [Compound 7] the Fold induction [1] was 2.9 and the “% Splenocyte proliferation” value [1] was 57%.
For `CN[C@@H](CO)C(=O)NNC(=O)[C@H](CC(N)=O)NC(=O)N[C@H](C(=O)O)C(C)O` (some centres unmarked) [Compound 4], the Fold induction [1] was 2.8 and the “% Splenocyte proliferation” value [1] was 56%.
Work on `CC(O)[C@H](N)C(=O)NNC(=O)[C@H](CC(N)=O)NC(=O)N[C@@H](CO)C(=O)O` (some centres unmarked) [Compound 12] yielded an EC50 (recombinant human PDL-1) of 0.022 µM, an EC50 (recombinant mouse PDL-1) of 27 nM and an EC50 (recombinant mouse PDL-2) of 62 nM.
`CC(O)[C@H](NC(=O)N[C@@H](CC(N)=O)C(=O)NNC(=O)[C@@H](N)CO)C(N)=O` (some centres unmarked) [Compound 6] was tested, and the Fold induction [1] was 2.3 and the “% Splenocyte proliferation” value [1] was 46%.
In the case of `CC(O)[C@H](N)C(=O)N[C@@H](CC(N)=O)C(=O)NNC(=O)[C@@H](N)CO` (some centres unmarked) [Compound 5], the Fold induction [1] is reported as 3 and the “% Splenocyte proliferation” value [1] is reported as 60%.
For `COC[C@H](N)C(=O)NNC(=O)[C@H](CC(N)=O)NC(=O)N[C@H](C(=O)O)C(C)O` (some centres unmarked) [Compound 11], the Fold induction [1] was 2.2 and the “% Splenocyte proliferation” value [1] was 44%.
`C[C@H](NC(=O)N[C@@H](CC(N)=O)C(=O)NNC(=O)[C@@H](N)CO)C(=O)O` [Compound 17] was tested, and the Fold induction [1] was 3 and the “% Splenocyte proliferation” value [1] was 59%.
`CCC(C)[C@H](NC(=O)N[C@@H](CC(N)=O)C(=O)NNC(=O)[C@@H](N)CO)C(=O)O` (some centres unmarked) [Compound 8] was tested, and the Fold induction [1] was 3 and the “% Splenocyte proliferation” value [1] was 60%.
With `COC(=O)[C@@H](NC(=O)N[C@@H](CC(N)=O)C(=O)NNC(=O)[C@@H](N)CO)C(C)O` (some centres unmarked) [Compound 10] the Fold induction [1] was 3.4 and the “% Splenocyte proliferation” value [1] was 67%.
`NC(=O)C[C@H](N)C(=O)NNC(=O)[C@@H](N)CO` [Compound 1] was tested, and the Fold induction [1] was 2.8 and the “% Splenocyte proliferation” value [1] was 56%.
With `CC(O)[C@H](NC(=O)N[C@@H](CC(N)=O)C(=O)NNC(=O)[C@@H](N)CO)C(=O)O` (some centres unmarked) [Compound 2] the EC50 (recombinant human PDL-1) was 0.023 µM, the Fold induction [1] was 3.4 and the “% Splenocyte proliferation” value [1] was 68%. For the same compound, the EC50 (recombinant mouse PDL-1) was 30 nM, the EC50 (recombinant mouse PDL-2) was 40 nM and the “body weight reduction during the period of dosing” value ([2]; CT26 model) was “no body weight reduction”. The “clinical signs during the period of dosing” value ([2]; CT26 model) was “no clinical signs” and the “inhibition of tumour growth” value ([2]; CT26 s.c., dosing from Day 5) was 46%.
In the case of `CNC(=O)N[C@H](C(=O)N[C@@H](CC(N)=O)C(=O)NNC(=O)[C@@H](N)CO)C(C)O` (some centres unmarked) [Compound 18], the Fold induction [1] is reported as 3 and the “% Splenocyte proliferation” value [1] is reported as 59%.
`CC(O)[C@@H](N)C(=O)NNC(=O)[C@@H](CC(N)=O)NC(=O)N[C@H](CO)C(=O)O` (some centres unmarked) [Compound 13] was tested, and the EC50 (recombinant human PDL-1) was 0.035 µM, the Fold induction [1] was 3.4 and the “% Splenocyte proliferation” value [1] was 67%. For the same compound, the EC50 (recombinant mouse PDL-1) was 40 nM and the EC50 (recombinant mouse PDL-2) was 30 nM.
